From ChEMBL document CHEMBL4342459, “The Race to Bash NASH: Emerging Targets and Drug Development in a Complex Liver Disease” (J Med Chem, 2020) come the findings set out here.

Data set [1] in a line: Oral bioavailability in rat. The conditions noted are these: in vivo. The format is ADME, organism-based.
Data set [2] in a line: Half life in rat. The conditions noted are these: in vivo. The class given is ADME.
In data set [3] the target is T1, Diacylglycerol O-acyltransferase 1 (Homo sapiens, UniProt O75907).
T1 sequence (O75907 whole entry): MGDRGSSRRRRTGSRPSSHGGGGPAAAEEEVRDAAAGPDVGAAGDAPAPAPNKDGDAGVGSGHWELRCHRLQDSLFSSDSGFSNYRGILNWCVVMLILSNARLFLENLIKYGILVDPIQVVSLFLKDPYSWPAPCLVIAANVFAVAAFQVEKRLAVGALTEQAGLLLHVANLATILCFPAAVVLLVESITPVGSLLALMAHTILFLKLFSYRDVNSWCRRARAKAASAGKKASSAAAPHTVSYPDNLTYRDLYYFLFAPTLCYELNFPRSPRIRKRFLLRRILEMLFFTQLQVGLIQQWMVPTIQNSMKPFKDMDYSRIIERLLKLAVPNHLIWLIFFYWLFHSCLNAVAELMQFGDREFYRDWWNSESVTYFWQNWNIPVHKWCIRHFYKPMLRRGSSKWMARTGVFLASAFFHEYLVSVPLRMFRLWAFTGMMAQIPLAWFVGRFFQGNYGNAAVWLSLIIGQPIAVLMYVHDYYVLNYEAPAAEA
Nature of the data set: Inhibition of recombinant FLAG-tagged human DGAT1 expressed in SF9 cells after 1 hr by TopCount assay.

Data set [4] deals with T2, Diacylglycerol O-acyltransferase 2 (Homo sapiens, UniProt Q96PD7).
T2 sequence (Q96PD7 whole entry): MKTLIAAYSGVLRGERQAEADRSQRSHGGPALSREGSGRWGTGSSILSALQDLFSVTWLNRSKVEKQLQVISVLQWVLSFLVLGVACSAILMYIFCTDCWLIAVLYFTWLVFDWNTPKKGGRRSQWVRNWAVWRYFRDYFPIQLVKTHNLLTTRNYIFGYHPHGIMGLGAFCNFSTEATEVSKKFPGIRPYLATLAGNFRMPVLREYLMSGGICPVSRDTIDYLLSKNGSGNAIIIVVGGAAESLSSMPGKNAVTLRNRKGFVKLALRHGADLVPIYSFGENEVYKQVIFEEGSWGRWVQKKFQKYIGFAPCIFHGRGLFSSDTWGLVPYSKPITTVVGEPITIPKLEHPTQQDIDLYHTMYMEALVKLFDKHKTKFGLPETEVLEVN
Nature of the data set: Inhibition of recombinant FLAG-tagged human DGAT2 expressed in SF9 cells after 1 hr by TopCount assay.

Where only a bound is given, the exact number is not on record here.

As to `CC(C)c1onc(-c2c(Cl)cccc2Cl)c1COc1ccc(/C=C/c2cccc(C(=O)O)c2)c(Cl)c1`, the bioavailability – broadly, the share of a dose that reaches the circulation, judged against a reference dose that is usually intravenous – in data set [1] is 10%. The half-life (commonly the time in which the quantity being followed falls by half) in data set [2] is 3.5 h.
As for `Cc1nc(C)c(-c2ccc(C3CCC(CC(=O)O)CC3)cc2)nc1C(N)=O` (centres undefined) [AZD-7687], the IC50 – broadly, the concentration at which inhibition is half-maximal – is over 300000 nM in data set [3] and 80 nM in data set [4].
